Laboratory results from US20260076937A1, “COMPOSITION FOR PREVENTING OR TREATING AUTOIMMUNE DISEASES COMPRISING A BCAT1 INHIBITOR” (Seoul National University R&DB Foundation, priority 2024, published 2026).
“Also recorded” adds a separate entry of the source.

Legend:
HIF-1α [1] = assay: RT-qPCR of HIF-1α and HIF-1α target genes in CD4+ memory T cells; assay type: cell-based, human
Method: Total RNA was prepared using TRIzol reagent (Life Technologies, Grand Island, NY), followed by cDNA synthesis (Promega, Madison, WI), followed by real-time quantitative RT-PCR with a CFX system (Bio-Rad, Hercules, CA) using SensiFAST SYBR® Lo-ROX (Bioline, London. UK). Gene expression levels were normalized for […] expression using the comparative CT method (ΔΔCT).

[2] = tested on: human CD4+ memory T cells; assay: scRNA-seq analysis of CD4+ memory T cells; assay type: cell-based; conditions: Bi2 10 μM
Method: Freshly purified CD4^+ memory T-cells were stimulated for 72 hours with anti-CD3/CD28 coated microbeads in the absence or presence of Bi2. Samples from four different donors were multiplexed for 30 minutes at 4° C. with a hashtag oligo. Totalseq™ anti-human hashtag antibody (Biolegend, USA) was then used to perform in three experimental conditions (TCR-stimulated cells with Bi2, TCR-stimulated cells without Bi2, and cells without TCR stimulation). Tagged cells were pooled and loaded into a Chromium system (10× Genomics, Pleasanton, CA) and encapsulated into a single droplet targeting about 40,000 cells for each GEM (Gel Beads-in-emulsion). Chromium Single Cell 5′ Kit (10× Genomics) was used to generate scRNA-seq and TCR libraries according to the manufacturer's instructions. Demultiplexing and read alignment to the bound human genome was performed using Cell Ranger (v6.1.2).

mouse CD4+ naive T cells = assay: Th17/Th1 polarization of mouse CD4+ naive T cells from iLN; assay type: cell-based; conditions: Bi2 10 μM
Method: (§1) Blocking BCAT1 with Bi2 attenuates Th17 differentiation in mice. In FIG. 13A mRNA expression of slc7a5 and bcat1 in mouse inguinal LN (iLN) cells was analyzed by RT-qPCR at 24 hours after TCR stimulation with anti-CD3/CD28 antibody (n=5). In FIG. 13B protein expression of BCAT1 in mouse inguinal LN cells was analyzed at 24 hours after stimulation of TCR with anti-CD3/CD28 antibody (n=5). In FIGS. 13C to 13D, mouse CD4^+ naive T cells derived from iLN were differentiated under […] or Th1 polarization conditions for 5 days in the presence of Bi2 (10 μM). The amounts of IFN-γ (c) and IL-17A (d) in the culture supernatants of Th1 and Th17 cells (n=5) are shown. In FIG. 13E, the cells of mouse iLN were stimulated with anti CD3/CD28 antibody in the presence of Bi2 (10 μM) for 24 hours. Cell lysates were immunoblotted for HIF-1α (n=3 independent experiments). Cells treated with COCl2 served as a positive control for HIF-1α. […] FIG. 13F is a representative histogram plot of intracellular HIF-1α in cells of mouse iLN. Cells were stimulated with anti CD3/CD28 antibody in the presence of Bi2 (10 μM) for 24 hours. […] The significance was indicated as *=p<0.05, **=p<0.01, ***=p<0.001, according to Mann-Whitney U test (a, c, d, f) or the two-tailed non-pair t test (b, e)).

HIF-1α [3] = assay: HIF-1α expression in TCR-stimulated mouse iLN cells; assay type: cell-based; conditions: Bi2 10 μM, 24 hours
Method: as §1

EAE mice = assay: Experimental autoimmune encephalomyelitis (EAE) model; assay type: in vivo, mouse
SKG mice = assay: Curdlan-induced arthritis in SKG mice; assay type: in vivo, mouse
Method: Eight-week-old female SKG mice used for induction of autoimmune arthritis [e.g., Rheumatoid Arthritis (RA)] were purchased from CLEA Japan (Tokyo, Japan). All mice were bred and managed in a sterile facility at Seoul National University School of Medicine. All experiments were approved by Seoul National University Institutional Animal Experimentation Ethics Committee (IACUC) (approval number: SNU-230825-2-2). At 8 weeks of age, 3 mg/mice curdlan (Wako, Japan) in 300 μl sterile PBS was injected intraperitoneally (i.p.) into mice. Ankle thickness was measured using calipers (Manostat, New York, NY). […] 0 point: no joint swelling; 0.1 point: single finger joint swelling; 0.5 point: minor swelling of wrist, ankle or tail base; 1.0 point: severe swelling of […], […] or tail base. Scores for all joints of each mouse were summed. Mice were euthanized at the end of the experiment and immune cells were extracted from inguinal lymph nodes (inguinal LNs) and joint cells.

[4] = Bi2 10 mg/kg or LβhL 1 g/kg i.p.
[5] = Bi2 10 mg/kg or LβhL 1 g/kg i.p., 10 mg/kg
[6] = Bi2 i.p. twice a week for 3 weeks

Compound: O=C(NNS(=O)(=O)c1ccccc1C(F)(F)F)c1cc2cc(Cl)ccc2o1 [Bi2, BCATc inhibitor 2]
- HIF-1α mRNA expression (HIF-1α [1]; 4 hours after TCR stimulation): reduced
- expression of SCL2A1, LDHA and PGK1 mRNA (HIF-1α target genes) (HIF-1α [1]; 72 hours of TCR stimulation): reduced
- HIF1A expression in activated Th17 cells ([2]; 72 hours TCR stimulation): down-regulated
- activated Th17 cell population (clusters 8, 13, 15) ([2]; 72 hours TCR stimulation): decreased
- T-cell activation, cytokine signaling and cytokine production pathways in activated Th17 subset ([2]; pathway enrichment of DEGs): decrease
- IFN-γ production (mouse CD4+ naive T cells; Th1 polarization 5 days): failed to inhibit
- differentiation of Th17 cells (IL-17A) (mouse CD4+ naive T cells; Th17 polarization 5 days): preferentially inhibited; also recorded: attenuates
- TCR-induced HIF-1α expression in mouse LN T cells (HIF-1α [3]): reduced
- HIF-1α expression in SCMC (immunoblot) (EAE mice; Bi2 10 mg/kg i.p.): decreased
- absolute number of Th17 cells co-producing IFN-γ/IL-17A (EAE mice; Bi2 10 mg/kg i.p.): significantly reduced
- absolute number of spinal cord mononuclear cells (SCMC) (EAE mice; Bi2 10 mg/kg i.p.): significantly lower
- proportion of CD4+ T-cells in SCMC (EAE mice; Bi2 10 mg/kg i.p.): significantly lower
- relative proportion of Th17 cells co-producing IFN-γ/IL-17A (EAE mice; Bi2 10 mg/kg i.p.): did not change
- cell infiltration in spinal cord (EAE mice; [4]): decrease
- nerve damage, spinal cord histology (EAE mice; [4]): decrease
- CD4+ T-cells producing IL-17A in spinal cord infiltrates and draining LN (EAE mice; [5]): preferentially reduced
- HIF-1α expression in CD4+ T-cells of spinal cord (intracellular staining) (EAE mice; [5]): preferentially in CD4+ T-cells in SCMC but not in CD11b+F4/80+ macrophages; also recorded: reduced
- EAE clinical score / severity (EAE mice; i.p. three times a week for 14 days, Bi2 10 mg/kg, LβhL 1 g/kg, 10 mg/kg): significantly lower; also recorded: alleviating the severity of disease
- ifng, tgfb1 expression in synovial cells (SKG mice; [6]): significantly reduced
- ratio of Th17 cells in CD3+CD4+ T cells in inguinal lymph nodes (SKG mice; [6]): significantly reduced
- arthritis score (SKG mice; Bi2 i.p. twice a week for 3 weeks after curdlan): significantly lower; also recorded: alleviates
